Values after ≈ are worked out from the molar mass of the structure shown. One block for each compound: values may come before it.
What was measured:
C. glabrata = conditions: manganese compound as enhancer; cited from earlier work
[1] = solvent named in the value; cited from earlier work
S. aureus ATCC25923 C622 = test: MIC by microtitre broth dilution; format: cell-based; conditions: Staphylococcus aureus; S. aureus ATCC25923 C622 wt Gram+; Mueller Hinton broth, 37° C., 24 h; read-out: Minimum inhibitory concentration
Experimental: (§1) MIC assays were conducted essentially as described by Amsterdam, D. 1996, “Susceptibility testing of antimicrobials in liquid media”, p. 52-11, in Loman, V., ed. Antibiotics in laboratory medicine, 4th ed. Williams and Wilkins, Baltimore, Md.

S. epidermidis C621 = test: MIC by microtitre broth dilution; format: cell-based; conditions: Staphylococcus epidermidis; S. epidermidis C621 wt Gram+; Mueller Hinton broth, 37° C., 24 h; read-out: Minimum inhibitory concentration
Experimental: as §1

S. pyogenes C721 = test: MIC by microtitre broth dilution; format: cell-based; conditions: Streptococcus pyogenes; S. pyogenes C721 wt Gram+; Todd Hewitt broth, 37° C., 24 h; read-out: Minimum inhibitory concentration
Experimental: as §1

[2] = tested on: P. aeruginosa PAE/K799 H187; test: MIC by microtitre broth dilution; format: cell-based; conditions: Pseudomonas aeruginosa; P. aeruginosa PAE/K799 H187 wt Gram−; Mueller Hinton broth, 37° C., 24 h; read-out: Minimum inhibitory concentration
Experimental: as §1

collagenase = format: cell-based, calf; conditions: primary chondrocytes, pre-incubation 6 hours, then IL-1 20 ng/ml 18 hours; 'as low as'
Experimental: Primary chondrocyte cultures were freshly isolated from calf cartilage. The cells were plated at 2.5×10^6 per ml in 100×20 mm culture dishes and incubated in Ham's F12 medium containing 5% FBS overnight at 37° C. The cells were starved in serum-free medium overnight and then treated with anti-microtubule agents at various concentrations for 6 hours. IL-1 (20 ng/ml) was then added to each plate and the plates incubated for an additional 18 hours. Total RNA was isolated by the acidified guanidine isothiocyanate method and subjected to electrophoresis on a denatured gel. Denatured RNA samples (15 μg) were analyzed by gel electrophoresis in a 1% denatured gel, transferred to a nylon membrane and hybridized with the ^32P-labeled collagenase cDNA probe. ^32P-labeled glyceraldehyde phosphate […] (GAPDH) cDNA as an internal standard to ensure roughly equal loading. The exposed films were scanned and quantitatively analyzed with IMAGEQUANT.

[3] = particularly in normal saline; cited from earlier work
ERK = conditions: cited from earlier work
p38 and JNK = conditions: cited from earlier work
NFkB and AP1 = conditions: cited from earlier work
joint swelling = conditions: chronic / adjuvant model; component alone (prednisolone at reduced dose); cited from earlier work
NFAT = conditions: cited from earlier work
TNF-α = conditions: acute in vivo model; component alone (prednisolone at reduced dose); cited from earlier work
GRE reporter plasmid = conditions: T cells; cited from earlier work
[4] = tested on: Primary human smooth muscle cells; test: Smooth muscle cell migration assay (Boyden chamber, rhPDGF-BB chemotaxis); format: cell-based; conditions: chemotaxis in response to rhPDGF-BB 10 ng/ml, 4 hours
stromelysin (MMP-3) = test: IL-1 induced MMP-3 (stromelysin) mRNA expression in chondrocytes, Northern blot; format: cell-based
Experimental: (§2) Cells were treated with paclitaxel at various concentrations (10^−7 to 10^−5 M) for 24 hours, then treated with IL-1β (20 ng/ml) for additional 18 hours in the presence of paclitaxel. Total RNA was isolated, and the MMP-1 mRNA levels were determined by Northern blot analysis. The blots were subsequently stripped and reprobed with ^32P-radiolabeled rat GAPDH cDNA, which was used as a housekeeping gene. […] Quantitation of collagenase-1 and stromelysin-expression mRNA levels was conducted. The MMP-1 and MMP-3 expression levels were normalized with GAPDH.

collagenase-1 (MMP-1) = test: IL-1 induced MMP-1 (collagenase) mRNA expression in chondrocytes, Northern blot; format: cell-based
Experimental: as §2

AP-1 = test: IL-1 induced AP-1 DNA binding activity, gel mobility shift assay; format: cell-based; conditions: chondrocyte nuclear lysates, pretreated with paclitaxel 10^−7 to 10^−5 M for 24 hours
endo-exonuclease = conditions: cited from earlier work
[5] = tested on: phosphatases of regenerating liver (PRL); conditions: cited from earlier work
[6] = biological target: protein tyrosine phosphatase 1B (PTP1B) (Homo sapiens, UniProt P18031); conditions: cited from earlier work
Sequence of protein tyrosine phosphatase 1B (PTP1B) (P18031 whole entry): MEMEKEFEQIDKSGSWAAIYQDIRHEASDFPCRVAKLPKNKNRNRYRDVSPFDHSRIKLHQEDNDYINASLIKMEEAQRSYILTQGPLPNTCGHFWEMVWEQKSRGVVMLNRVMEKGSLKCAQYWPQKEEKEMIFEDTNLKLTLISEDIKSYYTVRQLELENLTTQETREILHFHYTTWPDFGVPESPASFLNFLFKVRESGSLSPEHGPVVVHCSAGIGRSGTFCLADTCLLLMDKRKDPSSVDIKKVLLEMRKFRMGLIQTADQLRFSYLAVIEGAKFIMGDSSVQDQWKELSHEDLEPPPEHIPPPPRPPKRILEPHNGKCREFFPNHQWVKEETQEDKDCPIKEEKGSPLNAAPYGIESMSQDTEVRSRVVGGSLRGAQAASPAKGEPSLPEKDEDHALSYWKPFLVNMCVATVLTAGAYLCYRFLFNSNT

[7] = tested on: Candida spp., Aspergillus spp., Sporothrix schenckii, Penicillium marneffei, Malassezia furfur, Cryptococcus neoformans, Trichosporon spp. and …; conditions: against most Candida spp., Aspergillus spp. and other listed fungi; cited from earlier work
[8] = 10^−5 M paclitaxel, 24 hours pretreatment
[9] = chondrocytes pretreated with paclitaxel for 24 hours

Compound: CCC(C)n1ncn(-c2ccc(N3CCN(c4ccc(OC[C@H]5CO[C@](Cn6cncn6)(c6ccc(Cl)cc6Cl)O5)cc4)CC3)cc2)c1=O (mixture of isomers) [itraconazole]
anti-fungal activity against C. glabrata in combination with a manganese compound (C. glabrata): enhances

Compound: CC(=O)N1CCN(c2ccc(OC[C@@H]3CO[C@@](Cn4ccnc4)(c4ccc(Cl)cc4Cl)O3)cc2)CC1 (racemic) [ketoconazole]
solubility, in words [1]: essentially insoluble in water

MIC (S. aureus ATCC25923 C622): 0.1 µM (≈ 0.013 µg/mL) | MIC (S. epidermidis C621): 0.1 µM (≈ 0.013 µg/mL) | MIC (S. pyogenes C721): 100 µM (≈ 13 µg/mL) | MIC [2]: 10 µM (≈ 1.3 µg/mL)
Compound: O=c1[nH]cc(F)c(=O)[nH]1 [5-fluorouracil]

Compound: [F][Al]([F])[F] [AIF3]
lowest concentration that prevented IL-1-induced collagenase expression (collagenase): 100 nM

Compound: C[C@@H]1[C@H](O)[C@@H](C)/C=C/C=C/C=C/C=C/C=C/C=C/C=C/[C@H](O[C@@H]2O[C@H](C)[C@@H](O)[C@H](N)[C@@H]2O)C[C@@H]2O[C@](O)(C[C@@H](O)C[C@@H](O)[C@H](O)CC[C@@H](O)C[C@@H](O)CC(=O)O[C@H]1C)C[C@H](O)[C@H]2C(=O)O [Amphotericin B, amphotericin B]
stability in solution [3]: unstable in solution | solubility, in words [1]: poorly water soluble

Compound: CN(C)/N=N/c1[nH]cnc1C(N)=O [Dacarbazine, dacarbazine]
solubility, in words [1]: poorly soluble in water and ethanol

Compound: N#CC1=C(N)Oc2c(ccc3ccccc23)C1c1cccc([N+](=O)[O-])c1 (stereo not shown) [LY290181]
lowest concentration that prevented IL-1-induced collagenase expression (collagenase): 100 nM

Compound: COc1c2occc2cc2ccc(=O)oc12 [Methoxsalen, methoxsalen]
solubility, in words [1]: very poorly soluble in water, slightly soluble in alcohol, and readily soluble in propylene glycol

Compound: N=C(N)c1ccc(OCCCCCOc2ccc(C(=N)N)cc2)cc1 [Pentamidine isethionate, pentamidine isethionate]
solubility, in words [1]: soluble in water and glycerin and insoluble in ether, acetone, and chloroform

Compound: C[N+]1(CCCCC[N+]2(C)CCCC2)CCCC1 [Pentolinium ditartrate, pentolinium]
solubility, in words [1]: highly soluble in water

Compound: Nc1ccc(/N=N/c2ccccc2)c(N)n1 [Phenazopyridine base, phenazopyridine]
solubility, in words [1]: slightly soluble in water and alcohol

Compound: NNCCc1ccccc1 [Phenelzine, phenelzine]
solubility, in words [1]: highly soluble in water and very poorly soluble in alcohol

Compound: NC(=O)c1ncn([C@@H]2O[C@H](CO)[C@@H](O)[C@H]2O)n1 [Ribavirin, ribavirin]
solubility, in words [1]: only slightly soluble in alcohol

Compound: Clc1ccc2c(c1)C(N1CCNCC1)=Nc1ccccc1O2 [amoxapine]
effect on ERK activation (ERK): unaffected | effect on p38 and JNK activation (p38 and JNK): Inhibition | effect on NFkB and AP1 activation (NFkB and AP1): partially inhibits | effect of the individual components alone on joint swelling (joint swelling): modest or no benefit | effect on NFAT activation, translocation and transactivation (NFAT): block | effect of the individual components alone on TNF-α production (TNF-α): modest or no benefit | potentiation of prednisolone's ability to transactivate a GRE reporter plasmid (GRE reporter plasmid): does not potentiate

Compound: CC[C@@]1(O)C(=O)OCc2c1cc1n(c2=O)Cc2cc3ccccc3nc2-1 [camptothecin]
MIC (S. epidermidis C621): 100 µM (≈ 34.8 µg/mL)

Compound: CC[C@H](C)C[C@H](C)CCCCCCCCC(=O)N[C@H]1C[C@@H](O)[C@@H](NCCN)NC(=O)[C@@H]2[C@@H](O)CCN2C(=O)[C@H]([C@H](O)CCN)NC(=O)[C@H]([C@H](O)[C@@H](O)c2ccc(O)cc2)NC(=O)[C@@H]2C[C@@H](O)CN2C(=O)[C@H]([C@@H](C)O)NC1=O [caspofungin]
anti-fungal activity against C. glabrata in combination with a manganese compound (C. glabrata): enhances

Compound: [2H]O[2H] [deuterium oxide]
lowest concentration that prevented IL-1-induced collagenase expression (collagenase): 100 nM

Compound: OC(Cn1cncn1)(Cn1cncn1)c1ccc(F)cc1F [fluconazole]
anti-fungal activity against C. glabrata in combination with a manganese compound (C. glabrata): enhances

Compound: CCOC(=O)CN [glycine ethyl ester]
lowest concentration that prevented IL-1-induced collagenase expression (collagenase): 100 nM

IC50 [4]: 0.76 nM | collagenase mRNA levels (IL-1 induced) (collagenase-1 (MMP-1); [8]): complete inhibition | collagenase mRNA levels (IL-1 induced) (collagenase-1 (MMP-1); [9]): significantly reduced | IL-1 induced AP-1 binding activity to oligonucleotides (AP-1): decreased
Compound: CC(=O)O[C@H]1C(=O)[C@@]2(C)[C@H]([C@H](OC(=O)c3ccccc3)[C@]3(O)C[C@H](OC(=O)[C@H](O)[C@@H](NC(=O)c4ccccc4)c4ccccc4)C(C)=C1C3(C)C)[C@]1(OC(C)=O)CO[C@@H]1C[C@@H]2O [paclitaxel]
stromelysin mRNA levels (IL-1 induced) (stromelysin (MMP-3); [8]): complete inhibition | stromelysin mRNA levels (IL-1 induced) (stromelysin (MMP-3); [9]): significantly reduced | concentration inhibiting stromelysin expression in vitro (stromelysin (MMP-3); chondrocytes, IL-1 induced): 10^−6 M | concentration inhibiting collagenase expression in vitro (collagenase-1 (MMP-1); chondrocytes, IL-1 induced): 10^−6 M

Compound: N=C(N)c1ccc(OCCCCCOc2ccc(C(=N)N)cc2)cc1 [pentamidine]
inhibition of the activity of endo-exonuclease (endo-exonuclease): inhibit | inhibition of the oncogenic phosphatases of regenerating liver (PRL) [5]: potent inhibitor | inhibition of protein tyrosine phosphatase 1B (PTP1B) [6]: effective inhibitor

Compound: CN(C/C=C/C#CC(C)(C)C)Cc1cccc2ccccc12.Cl [terbinafine]
in vitro anti-fungal activity [7]: has activity | anti-fungal activity against C. glabrata in combination with a manganese compound (C. glabrata): enhances

Compound: Nc1ncnc2c1ccn2[C@@H]1O[C@H](CO)[C@@H](O)[C@H]1O [tubercidin]
lowest concentration that prevented IL-1-induced collagenase expression (collagenase): 100 nM

Compound: epothilone
lowest concentration that prevented IL-1-induced collagenase expression (collagenase): 100 nM

Compound: ethylene glycol bis-(succinimidylsuccinate)
lowest concentration that prevented IL-1-induced collagenase expression (collagenase): 100 nM

Compound: hexylene glycol
lowest concentration that prevented IL-1-induced collagenase expression (collagenase): 100 nM
